The source made the active and inactive calls.
Columns and labels:
Trypsin = Trypsin (Sus scrofa, UniProt P00761); experiment: trypsin protease activity blockade – biochemical, quenched peptide fluorescence, cherry-pick, selectivity assay for Rce1 protease inhibitor project, dose response (AID 488789)
[1] = target: Neurotensin receptor type 1 (Homo sapiens, UniProt P30989); format: functional;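 further: Image-based confirmatory dose-response assay measuring agonist activity at NTR1; NTR1-expressing U2OS osteosarcoma cells imaged for beta-arrestin GFP spot formation; agonist potency where compounds increase beta-arrestin recruitment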
Sequence of Neurotensin receptor type 1 (P30989 whole entry): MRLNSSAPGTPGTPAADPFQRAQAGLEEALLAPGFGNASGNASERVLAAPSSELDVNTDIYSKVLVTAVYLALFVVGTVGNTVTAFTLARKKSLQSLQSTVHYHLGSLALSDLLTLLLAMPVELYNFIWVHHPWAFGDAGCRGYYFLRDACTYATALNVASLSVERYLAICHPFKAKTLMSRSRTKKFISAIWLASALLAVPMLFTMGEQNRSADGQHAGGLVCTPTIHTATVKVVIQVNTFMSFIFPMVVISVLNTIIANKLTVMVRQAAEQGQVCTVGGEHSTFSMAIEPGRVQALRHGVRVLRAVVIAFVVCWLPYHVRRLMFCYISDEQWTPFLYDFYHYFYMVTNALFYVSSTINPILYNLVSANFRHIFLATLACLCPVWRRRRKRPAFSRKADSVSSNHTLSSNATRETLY

Prothrombin = Prothrombin (Homo sapiens, UniProt P00734); experiment: Thrombin 1536 HTS Dose Response Confirmation. [Related pubchem assays: 1046 (Thrombin 1536 HTS; hits were confirmed in this assay)]; format: functional
[2] = target: T1, Alkaline phosphatase, tissue-nonspecific isozyme (Homo sapiens, UniProt P05186)
T1 sequence (P05186 whole entry): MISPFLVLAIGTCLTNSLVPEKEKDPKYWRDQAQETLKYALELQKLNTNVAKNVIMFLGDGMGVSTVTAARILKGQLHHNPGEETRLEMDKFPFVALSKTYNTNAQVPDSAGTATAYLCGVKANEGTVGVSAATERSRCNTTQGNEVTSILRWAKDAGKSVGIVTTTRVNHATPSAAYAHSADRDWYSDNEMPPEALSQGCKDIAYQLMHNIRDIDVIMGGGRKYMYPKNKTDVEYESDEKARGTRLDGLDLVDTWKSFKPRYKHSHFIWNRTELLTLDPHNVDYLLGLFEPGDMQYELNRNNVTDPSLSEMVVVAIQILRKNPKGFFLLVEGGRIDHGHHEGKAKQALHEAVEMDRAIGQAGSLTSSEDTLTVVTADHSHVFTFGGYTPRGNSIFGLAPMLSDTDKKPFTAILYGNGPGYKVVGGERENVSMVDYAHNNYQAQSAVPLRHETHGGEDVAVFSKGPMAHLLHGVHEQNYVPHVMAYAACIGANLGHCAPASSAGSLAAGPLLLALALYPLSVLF

HT-1080 = experiment: HT1080 cell viability loss – fluorescence readout (AID 620); format: functional, cell-based; conditions: Homo sapiens
Beta-lactamase [3] = target: Beta-lactamase (Pseudomonas aeruginosa, UniProt Q79MP6);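 further: biochemical dose-response test of metallo-beta-lactamase enzyme inhibition, read out by epi-absorbance; purified recombinant IMP-1 metallo-beta-lactamase with nitrocefin as substrate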
[4] = target: Luciferin 4-monooxygenase (Photinus pyralis, UniProt P08659); experiment: Counter Screen for Luciferase-based Assay Positives. [Related pubchem assays: 620, 618, 411 ]
Sequence of Luciferin 4-monooxygenase (P08659 whole entry): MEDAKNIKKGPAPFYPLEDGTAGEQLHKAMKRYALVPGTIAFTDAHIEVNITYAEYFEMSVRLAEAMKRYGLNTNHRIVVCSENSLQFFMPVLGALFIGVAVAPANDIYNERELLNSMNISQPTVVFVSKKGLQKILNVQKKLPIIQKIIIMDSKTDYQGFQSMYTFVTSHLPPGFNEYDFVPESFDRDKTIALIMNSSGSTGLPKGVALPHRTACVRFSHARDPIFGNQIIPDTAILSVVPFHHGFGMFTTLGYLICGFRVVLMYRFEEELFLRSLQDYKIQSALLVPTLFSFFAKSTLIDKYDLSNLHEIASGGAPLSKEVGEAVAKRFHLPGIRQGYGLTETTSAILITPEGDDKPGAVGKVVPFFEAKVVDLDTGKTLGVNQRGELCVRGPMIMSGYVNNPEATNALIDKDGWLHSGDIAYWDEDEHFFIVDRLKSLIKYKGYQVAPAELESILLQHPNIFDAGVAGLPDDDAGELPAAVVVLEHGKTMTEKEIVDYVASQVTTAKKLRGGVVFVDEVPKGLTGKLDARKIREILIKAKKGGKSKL

[5] = target: Protein-tyrosine kinase 2-beta (Homo sapiens, UniProt Q14289);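 further: potency of inhibitors of PYK2 kinase phosphorylation of poly-GT substrate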
Sequence of Protein-tyrosine kinase 2-beta (Q14289 whole entry): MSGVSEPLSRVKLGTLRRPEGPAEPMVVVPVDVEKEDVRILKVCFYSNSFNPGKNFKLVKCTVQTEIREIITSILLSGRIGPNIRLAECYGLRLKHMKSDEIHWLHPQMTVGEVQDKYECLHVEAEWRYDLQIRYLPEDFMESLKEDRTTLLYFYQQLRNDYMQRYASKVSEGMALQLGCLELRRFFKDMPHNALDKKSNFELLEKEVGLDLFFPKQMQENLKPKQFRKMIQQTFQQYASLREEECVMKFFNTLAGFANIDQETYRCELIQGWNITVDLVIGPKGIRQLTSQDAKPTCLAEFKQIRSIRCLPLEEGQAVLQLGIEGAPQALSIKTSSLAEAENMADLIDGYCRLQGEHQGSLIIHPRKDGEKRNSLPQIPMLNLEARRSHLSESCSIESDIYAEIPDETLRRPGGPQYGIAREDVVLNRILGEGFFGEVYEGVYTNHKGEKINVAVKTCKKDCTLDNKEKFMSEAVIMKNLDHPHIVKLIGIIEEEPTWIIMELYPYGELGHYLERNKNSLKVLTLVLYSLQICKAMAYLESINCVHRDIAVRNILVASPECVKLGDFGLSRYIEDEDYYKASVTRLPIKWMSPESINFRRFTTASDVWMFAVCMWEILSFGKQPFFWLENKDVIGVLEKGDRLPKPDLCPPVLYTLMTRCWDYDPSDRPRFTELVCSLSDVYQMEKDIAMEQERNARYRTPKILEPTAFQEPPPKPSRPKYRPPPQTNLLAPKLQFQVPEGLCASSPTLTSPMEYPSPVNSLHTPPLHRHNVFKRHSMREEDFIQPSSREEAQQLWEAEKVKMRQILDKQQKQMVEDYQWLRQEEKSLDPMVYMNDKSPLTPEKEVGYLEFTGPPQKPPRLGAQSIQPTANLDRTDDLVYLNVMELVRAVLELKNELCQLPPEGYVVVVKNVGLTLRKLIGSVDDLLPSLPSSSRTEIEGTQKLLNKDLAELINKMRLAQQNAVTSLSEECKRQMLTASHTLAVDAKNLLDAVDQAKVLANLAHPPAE

Beta-lactamase [6] = target: Beta-lactamase (Salmonella choleraesuis (strain SC-B67), UniProt Q5J463)
[7] = target: Voltage-dependent T-type calcium channel subunit alpha-1H (Homo sapiens, UniProt O95180); format: functional;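 further: channel activity triggered by adding a high calcium stimulation buffer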
[8] = target: T2, Eukaryotic translation initiation factor 2-alpha kinase 3 (Homo sapiens, UniProt Q9NZJ5); experiment: Dose response cell-based high-throughput screening assay to measure PERK inhibition. [Related pubchem assays: 1416 ]; format: functional
T2 sequence (Q9NZJ5 whole entry): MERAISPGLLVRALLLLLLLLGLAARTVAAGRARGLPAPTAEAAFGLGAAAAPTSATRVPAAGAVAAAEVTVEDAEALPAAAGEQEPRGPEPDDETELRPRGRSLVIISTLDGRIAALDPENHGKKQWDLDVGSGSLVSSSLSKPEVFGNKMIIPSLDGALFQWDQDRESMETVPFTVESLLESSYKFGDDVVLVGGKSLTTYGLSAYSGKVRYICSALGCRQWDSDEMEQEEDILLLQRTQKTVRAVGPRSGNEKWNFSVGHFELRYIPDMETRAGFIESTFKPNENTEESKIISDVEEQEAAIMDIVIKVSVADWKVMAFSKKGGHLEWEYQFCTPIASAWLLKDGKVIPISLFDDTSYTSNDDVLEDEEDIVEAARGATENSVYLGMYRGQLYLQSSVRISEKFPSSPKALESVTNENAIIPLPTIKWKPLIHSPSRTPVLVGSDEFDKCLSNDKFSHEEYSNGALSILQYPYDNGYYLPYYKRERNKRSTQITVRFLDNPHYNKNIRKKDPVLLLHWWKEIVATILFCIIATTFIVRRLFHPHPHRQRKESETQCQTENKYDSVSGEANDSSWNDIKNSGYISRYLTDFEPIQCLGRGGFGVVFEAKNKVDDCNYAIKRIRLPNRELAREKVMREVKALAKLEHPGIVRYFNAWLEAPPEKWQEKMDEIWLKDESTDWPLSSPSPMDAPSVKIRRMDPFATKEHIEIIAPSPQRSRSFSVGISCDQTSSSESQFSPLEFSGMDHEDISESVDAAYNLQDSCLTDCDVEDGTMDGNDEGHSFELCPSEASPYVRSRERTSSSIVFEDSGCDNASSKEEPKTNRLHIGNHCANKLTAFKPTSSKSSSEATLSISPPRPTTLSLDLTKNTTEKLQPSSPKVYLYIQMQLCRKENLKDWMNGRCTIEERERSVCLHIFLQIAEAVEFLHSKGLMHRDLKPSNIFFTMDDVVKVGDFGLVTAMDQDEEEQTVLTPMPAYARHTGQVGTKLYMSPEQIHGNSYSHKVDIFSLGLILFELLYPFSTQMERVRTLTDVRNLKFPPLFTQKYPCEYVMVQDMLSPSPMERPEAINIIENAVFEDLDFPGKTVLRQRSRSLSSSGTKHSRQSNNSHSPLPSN

[9] = target: T2, Eukaryotic translation initiation factor 2-alpha kinase 3; experiment: Counterscreen assay for PERK inhibitors: Dose response cell-based high throughput screening assay to measure inhibition of PERK at 6 hours. [Related pubchem assays: 1522, 1416 ]; format: functional
Albumin = Albumin (Bos taurus, UniProt P02769); experiment: Counterscreen for inhibitors of T-cell receptor (TCR)-CD3 interaction: Fluorescence-based biochemical high throughput dose response assay to identify inhibitors of T-cell receptor (TCR)-CD3 interaction using a TAMRA-labeled BSA probe.; format: functional
[10] = target: Cyclin-dependent kinase 5/CDK5 activator 1 (Homo sapiens, UniProt Q00535); experiment: blockade of human CDK5 activity – biochemical, cherry-picked samples, set 2, dose response (AID 504545)
Sequence of Cyclin-dependent kinase 5/CDK5 activator 1 (Q00535 whole entry): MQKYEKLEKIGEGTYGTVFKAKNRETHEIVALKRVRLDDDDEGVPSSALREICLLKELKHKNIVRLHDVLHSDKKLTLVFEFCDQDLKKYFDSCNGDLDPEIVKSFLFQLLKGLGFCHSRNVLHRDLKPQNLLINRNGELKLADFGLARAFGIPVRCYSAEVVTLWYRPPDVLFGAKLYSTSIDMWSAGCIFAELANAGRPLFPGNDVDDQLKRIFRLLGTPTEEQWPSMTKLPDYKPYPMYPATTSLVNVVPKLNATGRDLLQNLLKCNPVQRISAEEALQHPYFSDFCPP
Sequence of Cyclin-dependent kinase 5/CDK5 activator 1 (Q15078 whole entry, further chain): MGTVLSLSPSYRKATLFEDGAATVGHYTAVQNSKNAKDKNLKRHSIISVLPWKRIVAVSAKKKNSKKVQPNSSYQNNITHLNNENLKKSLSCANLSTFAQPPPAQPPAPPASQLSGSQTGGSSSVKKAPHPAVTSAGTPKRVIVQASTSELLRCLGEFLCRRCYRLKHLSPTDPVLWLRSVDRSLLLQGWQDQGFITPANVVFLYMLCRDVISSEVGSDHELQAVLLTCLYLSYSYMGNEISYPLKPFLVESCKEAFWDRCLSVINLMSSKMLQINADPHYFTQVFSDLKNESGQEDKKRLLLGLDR

[11] = target: T3, Heat shock factor protein 1 (Mus musculus, UniProt P38532); experiment: enhancement of HSF1-driven luciferase signal – cell-based, NIH3T3, luminescence, dose retest, confirmation (AID 435004); format: functional;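 further: stress induced by proteasome inhibitor MG132 added 30 min after compound; luciferase reporter driven by HSF1 response element in NIH3T3 cells; actives raise luminescence as potentiators of the MG132 stress response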
T3 sequence (P38532 whole entry): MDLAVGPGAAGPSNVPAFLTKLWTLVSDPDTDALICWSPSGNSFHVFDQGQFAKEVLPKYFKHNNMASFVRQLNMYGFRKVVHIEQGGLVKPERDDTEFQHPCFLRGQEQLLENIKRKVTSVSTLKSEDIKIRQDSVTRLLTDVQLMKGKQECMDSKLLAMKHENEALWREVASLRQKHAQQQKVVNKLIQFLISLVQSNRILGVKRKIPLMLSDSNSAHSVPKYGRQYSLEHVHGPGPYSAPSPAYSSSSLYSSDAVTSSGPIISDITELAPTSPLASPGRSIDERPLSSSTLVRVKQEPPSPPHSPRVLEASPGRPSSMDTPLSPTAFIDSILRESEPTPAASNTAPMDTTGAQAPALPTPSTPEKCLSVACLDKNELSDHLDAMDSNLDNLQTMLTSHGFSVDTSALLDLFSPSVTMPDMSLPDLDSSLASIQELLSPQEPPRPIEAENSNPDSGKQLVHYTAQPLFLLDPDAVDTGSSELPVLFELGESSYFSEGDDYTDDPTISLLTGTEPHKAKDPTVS

Cytochrome P450 2C9 = Cytochrome P450 2C9 (Homo sapiens, UniProt P11712); conditions: Potency
Sequence of Cytochrome P450 2C9 (P11712 whole entry): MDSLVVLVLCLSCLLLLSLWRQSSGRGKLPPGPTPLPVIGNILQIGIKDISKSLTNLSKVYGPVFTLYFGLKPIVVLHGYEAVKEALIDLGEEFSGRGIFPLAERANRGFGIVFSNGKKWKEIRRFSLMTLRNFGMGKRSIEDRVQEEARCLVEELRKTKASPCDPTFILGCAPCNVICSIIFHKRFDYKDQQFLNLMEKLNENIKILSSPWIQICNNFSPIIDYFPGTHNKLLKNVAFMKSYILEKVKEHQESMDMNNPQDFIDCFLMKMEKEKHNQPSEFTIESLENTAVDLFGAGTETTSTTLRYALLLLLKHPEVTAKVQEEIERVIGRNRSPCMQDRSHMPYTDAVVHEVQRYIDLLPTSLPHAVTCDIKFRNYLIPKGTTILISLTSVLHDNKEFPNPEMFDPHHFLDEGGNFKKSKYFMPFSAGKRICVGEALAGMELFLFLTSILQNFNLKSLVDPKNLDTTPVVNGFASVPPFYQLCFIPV

[12] = target: Melanin-concentrating hormone receptor 1 (Homo sapiens, UniProt Q99705); experiment: Fluorescence-based counterscreen for antagonists of the G-protein coupled receptor 7 (GPR7): cell-based high throughput dose response assay to identify antagonists of the melanin-concentrating hormone receptor 1 (MCHR1).; format: functional
Sequence of Melanin-concentrating hormone receptor 1 (Q99705 whole entry): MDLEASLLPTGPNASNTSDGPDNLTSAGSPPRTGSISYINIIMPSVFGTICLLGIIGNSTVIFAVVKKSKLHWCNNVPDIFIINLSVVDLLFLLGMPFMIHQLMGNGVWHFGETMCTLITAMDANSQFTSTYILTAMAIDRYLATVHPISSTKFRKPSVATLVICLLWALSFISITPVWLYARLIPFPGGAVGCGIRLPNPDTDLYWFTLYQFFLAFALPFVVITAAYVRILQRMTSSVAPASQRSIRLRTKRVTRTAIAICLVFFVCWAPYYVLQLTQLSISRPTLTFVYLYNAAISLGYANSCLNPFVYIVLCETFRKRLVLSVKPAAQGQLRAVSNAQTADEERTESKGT

[13] = toxicity toward HepG2 liver cells – cell-based, plate reader, cherry-pick, antagonist series, cytotoxicity control, dose response (AID 743416); format: functional
[14] = blockade of melanocortin 4 receptor signaling – cell-based, plate reader, cherry pick, counter-screen for LGR2 antagonist project, dose response (AID 743444); format: functional;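 further: transfected HEK 293 cells stimulated with alpha-MSH peptide; potency of inhibitors of the alpha-MSH evoked signal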
[15] = blockers of bursicon-stimulated LGR2 cAMP reporter – cell-based, HEK293, CRE-luciferase reporter, cherry pick, set 2, dose response (AID 743343); format: functional;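 further: transfected cells were stimulated with diluted bursicon conditioned medium after compound addition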
[16] = microbe, parasite or virus in culture; format: functional; conditions: Mycobacterium tuberculosis
[17] = Luminescence Cell-Based Dose Response HTS to Identify Inhibitors of 5'UTR Stem-Loop Driven Prion Protein mRNA Translation in H4 Neuroglioblastoma Cells. [Related pubchem assays: 1827 (Project Summary), 1813 (Primary HTS)]; format: functional
[18] = alpha-synuclein stem-loop luciferase translation blockers – H4 neuroglioma cells, luminescence, confirmation (AID 1988); format: functional, cell-based
[19] = luciferase reporter signal suppression in cells – H4 neuroglioma cells, luminescence, dose response (AID 1990); format: functional, cell-based
[20] = target: T4, Corticotropin-releasing factor receptor 2/Corticotropin-releasing factor-binding protein (Homo sapiens, UniProt P24387+Q13324); experiment: activators of CRF receptor 2 with binding protein – uHTS hits, confirmation (AID 602473); format: functional; conditions: read-out: EC50_Mean
T4 sequence (Q13324 whole entry): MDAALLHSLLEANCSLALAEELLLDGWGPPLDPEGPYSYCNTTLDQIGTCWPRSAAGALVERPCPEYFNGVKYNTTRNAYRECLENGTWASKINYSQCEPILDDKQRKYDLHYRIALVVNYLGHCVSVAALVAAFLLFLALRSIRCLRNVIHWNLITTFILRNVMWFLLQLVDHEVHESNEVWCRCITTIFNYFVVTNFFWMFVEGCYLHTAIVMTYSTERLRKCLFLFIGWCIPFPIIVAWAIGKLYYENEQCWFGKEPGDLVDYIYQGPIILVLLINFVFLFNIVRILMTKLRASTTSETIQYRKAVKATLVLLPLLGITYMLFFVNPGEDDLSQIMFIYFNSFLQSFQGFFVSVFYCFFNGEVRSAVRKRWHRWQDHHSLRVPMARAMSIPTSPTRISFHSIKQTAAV
T4 sequence (P24387 whole entry): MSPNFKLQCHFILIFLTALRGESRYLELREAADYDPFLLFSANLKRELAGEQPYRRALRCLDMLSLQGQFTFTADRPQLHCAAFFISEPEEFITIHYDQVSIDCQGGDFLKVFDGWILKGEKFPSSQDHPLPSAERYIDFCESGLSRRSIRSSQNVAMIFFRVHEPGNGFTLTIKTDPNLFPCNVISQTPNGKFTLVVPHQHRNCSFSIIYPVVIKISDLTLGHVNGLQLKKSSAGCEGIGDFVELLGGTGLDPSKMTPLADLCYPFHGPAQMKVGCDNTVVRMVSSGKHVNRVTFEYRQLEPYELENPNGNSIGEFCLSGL

Mucolipin-3 = Mucolipin-3 (Homo sapiens, UniProt Q8TDD5); experiment: Dose response cell-based high-throughput screening assay for agonists of the transient receptor potential channel ML3 (TRPML3). [Related pubchem assays: 1526, 1424, 1448 ]; format: functional
Ion channel NompC = Ion channel NompC (Danio rerio, UniProt Q7T1G6); experiment: Fluorescence counterscreen assay for TRPML3 agonists: dose response cell-based high-throughput screening assay to identify agonists of the transient receptor potential channel N1 (TRPN1). [Related pubchem assays: 1526, 1424, 1448 ]; format: functional
Sequence of Ion channel NompC (Q7T1G6 whole entry): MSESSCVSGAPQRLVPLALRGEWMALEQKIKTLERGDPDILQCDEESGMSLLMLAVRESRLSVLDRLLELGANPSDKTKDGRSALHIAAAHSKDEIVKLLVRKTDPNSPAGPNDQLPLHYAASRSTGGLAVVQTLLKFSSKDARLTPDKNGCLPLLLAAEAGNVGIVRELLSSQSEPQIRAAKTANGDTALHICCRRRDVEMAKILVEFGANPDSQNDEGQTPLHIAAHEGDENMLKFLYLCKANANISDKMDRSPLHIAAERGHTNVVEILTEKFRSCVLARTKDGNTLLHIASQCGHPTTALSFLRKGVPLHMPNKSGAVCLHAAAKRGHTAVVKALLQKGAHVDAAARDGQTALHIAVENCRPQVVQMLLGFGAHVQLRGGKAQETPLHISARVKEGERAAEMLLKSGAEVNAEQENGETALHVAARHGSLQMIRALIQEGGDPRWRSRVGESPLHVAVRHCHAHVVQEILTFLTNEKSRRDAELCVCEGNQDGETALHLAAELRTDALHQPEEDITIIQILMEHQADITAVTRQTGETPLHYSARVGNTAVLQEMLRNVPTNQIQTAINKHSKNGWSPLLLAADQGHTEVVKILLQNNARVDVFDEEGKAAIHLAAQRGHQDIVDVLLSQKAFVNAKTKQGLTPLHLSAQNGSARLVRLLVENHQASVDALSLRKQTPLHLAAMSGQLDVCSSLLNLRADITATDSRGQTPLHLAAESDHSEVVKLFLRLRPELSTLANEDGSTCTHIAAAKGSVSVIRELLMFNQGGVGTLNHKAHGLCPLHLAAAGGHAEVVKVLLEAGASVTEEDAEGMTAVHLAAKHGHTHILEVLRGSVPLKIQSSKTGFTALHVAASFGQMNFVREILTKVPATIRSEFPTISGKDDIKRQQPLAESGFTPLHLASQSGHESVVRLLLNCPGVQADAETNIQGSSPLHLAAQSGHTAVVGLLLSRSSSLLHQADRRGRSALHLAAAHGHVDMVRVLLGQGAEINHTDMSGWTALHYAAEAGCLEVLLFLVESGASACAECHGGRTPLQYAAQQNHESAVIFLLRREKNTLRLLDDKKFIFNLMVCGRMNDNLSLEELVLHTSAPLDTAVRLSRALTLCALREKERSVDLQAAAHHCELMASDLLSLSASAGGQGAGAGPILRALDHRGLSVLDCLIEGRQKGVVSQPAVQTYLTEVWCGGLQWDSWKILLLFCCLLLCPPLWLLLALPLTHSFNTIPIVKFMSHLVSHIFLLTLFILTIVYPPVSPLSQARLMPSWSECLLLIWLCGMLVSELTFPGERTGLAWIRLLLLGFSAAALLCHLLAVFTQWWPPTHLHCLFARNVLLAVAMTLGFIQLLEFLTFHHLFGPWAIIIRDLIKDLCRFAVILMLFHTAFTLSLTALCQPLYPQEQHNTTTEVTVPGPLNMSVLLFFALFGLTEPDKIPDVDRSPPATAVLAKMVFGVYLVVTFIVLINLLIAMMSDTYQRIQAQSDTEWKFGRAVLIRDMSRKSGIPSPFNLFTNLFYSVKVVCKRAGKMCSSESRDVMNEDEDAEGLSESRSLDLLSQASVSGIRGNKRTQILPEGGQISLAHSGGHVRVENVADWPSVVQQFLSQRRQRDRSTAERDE

COc1ccc(-c2ccc(-c3nnc(-c4cc(OC)ccc4OC)o3)cc2)cc1
AC50 (Trypsin): 10.4 µM (active)

COc1cc(/C=N/Nc2nc(-c3ccc(S(=O)(=O)N(C)C)cc3)cs2)ccc1O
EC50 [1]: 17.6 µM (active)

COc1ccc(CCNC(=O)C2CCC(CNS(=O)(=O)c3ccccc3)CC2)cc1OC (stereo not given)
IC50 (Prothrombin): > 50 µM (not active) | EC50 [2]: > 100 µM (not active)

CCN(CC)c1ccc2cc(-c3nc4ccccc4[nH]3)c(=O)oc2c1
EC50 (HT-1080): > 50 µM (not active) | IC50 (Beta-lactamase [3]): 3.24 µM (active) | EC50 [4]: < 0.2 µM (active) | IC50 [5]: 2.32 µM (active) | IC50 (Beta-lactamase [6]): 0.709 µM (active) | EC50 [7]: 0.434 µM (active)

Cc1cc(C)c(NC(=O)NC(=O)C(Cl)(Cl)Cl)c(C)c1
EC50 [8]: > 55.7 µM (not active) | EC50 [9]: > 55.7 µM (not active)

CC(NS(=O)(=O)c1ccccc1)c1nnc(S)n1-c1ccccc1 (stereo not given)
EC50 [8]: > 55.7 µM (not active) | EC50 [9]: > 55.7 µM (not active)

COc1ccc(/C=C2\SC(=O)N(CC(=O)NNC(=O)c3ccccc3O)C2=O)cc1
IC50 (Albumin): > 94.1 µM (inactive) | EC50 [2]: 64.3 µM (not active)

O=C1Nc2ccccc2/C1=C/c1c[nH]cn1
AC50 [10]: 0.268 µM (active) | EC50 [11]: 17.5 µM (active) | IC50 [5]: 8.78 µM (active)

C=C[C@@](C)(O)CC[C@H]1[C@]2(C)CCCC(C)(C)[C@H]2CC[C@]1(C)O
AC50 (Cytochrome P450 2C9): 31.6 µM (inconclusive)

CCOC(=O)C(C)On1c(-c2ccccc2)nc2ccc([N+](=O)[O-])cc21 (stereo not given)
IC50 [12]: 15.9 µM (not active)

COC(=O)c1ccc(NC(=O)CSc2nc3ccc(N4C(=O)C5C6C=CC(C6)C5C4=O)cc3s2)cc1 (stereo not given)
EC50 [1]: > 40 µM (inactive) | AC50 [13]: > 52 µM (inactive) | AC50 [14]: 7.79 µM (active) | AC50 [15]: 8.11 µM (active) | CC50 [16]: > 40 µM (active)

CCOC(=O)OCC1OC(c2ccccc2)C=CC1OC(=O)OCC (stereo not given)
AC50 (Cytochrome P450 2C9): 3.16 µM (inconclusive)

O=c1c(Cl)c(N2CCCCC2)cnn1-c1nc2ccccc2[nH]1
EC50 [17]: 34.4 µM (active) | EC50 (HT-1080): > 50 µM (not active) | EC50 [18]: 2.68 µM (active) | EC50 [4]: 4.25 µM (active) | EC50 [19]: 2.55 µM (active)

O=C(c1ccc([N+](=O)[O-])cc1)N(Cc1ccc(Cl)cc1Cl)N1C(=O)CCCC1=O
EC50 [20]: > 53 µM (inactive) | EC50 (Mucolipin-3): > 29.9 µM (not active) | EC50 (Ion channel NompC): > 29.9 µM (not active)

— ChEMBL document CHEMBL1201862, “PubChem BioAssay data set” (2004)
